One experiment has as its target memapsin 2 (Homo sapiens, UniProt P56817). As to the kind of experiment: Inhibition of memapsin 2 beta-secretase activity (fluorogenic substrate FS-2). The following applies: memapsin 2, pH 4, 37° C., read-out: M2Ki. Type of experiment: biochemical. In a few lines: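 Memapsin 2 pre-incubated 20 min with compound at pH 4, 37° C, then FS-2 substrate (MCA-SEVNLDAEFK-DNP, APP Swedish cleavage site) added. Rate of fluorescence increase compared with uninhibited controls, fitted to a tight-binding inhibition model.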

The subject of experiment [1] is Aβ production in Chinese hamster ovary cells that over-express human APP695 with the London and Swedish mutations. As to the kind of experiment: Cellular Aβ IC50 determination (Aβ40 sandwich ELISA). The following applies: Cricetulus griseus. In kind it is cell-based. In a few lines: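 CHO cells overexpressing human APP695 with London and Swedish mutations, seeded at 10% confluency, treated with compounds up to about 4 μM final (0.4% DMSO). Secreted Aβ40 measured by sandwich ELISA relative to control and fitted to a 4-parameter IC50 model.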
On the technique in general: ELISA stands for enzyme-linked immunosorbent assay.

[2] abbreviates: cellular Aβ production, read-out: IC50.

Each structure is given as a SMILES string. pIC50, pKi: −log10 of the molar value. Read-outs that look alike come from different tables or passages of the source. Where only a bound is given, the exact number is not on record here.

By pIC50 is commonly meant the IC50 on a negative log10 scale, so that one unit is a factor of ten.

Chain of memapsin 2 (P56817 46-501): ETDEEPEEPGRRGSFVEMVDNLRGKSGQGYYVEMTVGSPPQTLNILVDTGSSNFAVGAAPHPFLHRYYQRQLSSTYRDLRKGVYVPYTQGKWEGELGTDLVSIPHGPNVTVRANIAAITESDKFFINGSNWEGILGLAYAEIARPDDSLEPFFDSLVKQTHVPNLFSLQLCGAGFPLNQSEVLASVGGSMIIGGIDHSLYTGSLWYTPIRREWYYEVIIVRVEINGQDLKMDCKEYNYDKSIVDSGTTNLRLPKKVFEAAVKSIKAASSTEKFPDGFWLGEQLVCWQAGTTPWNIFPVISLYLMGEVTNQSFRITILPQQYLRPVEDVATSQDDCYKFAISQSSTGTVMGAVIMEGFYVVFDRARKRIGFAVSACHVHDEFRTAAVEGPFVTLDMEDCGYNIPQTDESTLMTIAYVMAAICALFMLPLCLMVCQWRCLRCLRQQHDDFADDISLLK

Take `COc1cccc(CNC[C@@H](O)[C@H](Cc2ccccc2)NC(=O)c2cc(OC)cc(C(=O)N(Cc3nc(C)cs3)C(C)C)c2)c1` [Compound 25, N1-((2S,3R)-3-hydroxy-4-(3-methoxybenzylamino)-1-phenylbutan-2-yl)-N3-isopropyl-5-methoxy-N3-((4-methylthiazol-2-yl)methyl)isophthalamide]: at memapsin 2 (20 minutes pre-incubation), the pKi is more than 6.52. In experiment [1] (setting [2]), the pIC50 is more than 6.00.

As for `Cc1csc(CN(C)C(=O)c2cccc(C(=O)N[C@@H](Cc3ccccc3)[C@H](O)CNCc3cc(C(C)C)nc(C(C)C)c3)c2)n1` [Compound 106, N1-((2S,3R)-4-((2,6-diisopropylpyridin-4-yl)methylamino)-3-hydroxy-1-phenylbutan-2-yl)-N3-methyl-N3-((4-methylthiazol-2-yl)methyl)isophthalamide], the pKi at memapsin 2 (20 minutes pre-incubation) is more than 6.52. For the same compound, in experiment [1] (setting [2]), the pIC50 was more than 6.00.

`Cc1csc(CN(C)C(=O)c2cc(C(=O)N[C@@H](Cc3ccccc3)[C@H](O)CNCc3cncc(C(C)C)c3)cc(-c3cccnc3)c2)n1` [Compound 200, N1-((2S,3R)-3-hydroxy-4-((5-isopropylpyridin-3-yl)methylamino)-1-phenylbutan-2-yl)-N3-methyl-N3-((4-methylthiazol-2-yl)methyl)-5-(pyridin-3-yl)isophthalamide]: the pKi on memapsin 2 (20 minutes pre-incubation) is more than 6.52. Further, in experiment [1] (setting [2]), the pIC50 was more than 6.00.

Turning to `Cc1csc(CN(C)C(=O)c2cccc(C(=O)N[C@@H](Cc3ccccc3)[C@H](O)CNCc3cc(C(C)C)nc(N)n3)c2)n1` [Compound 155, N1-((2S,3R)-4-((2-amino-6-isopropylpyrimidin-4-yl)methylamino)-3-hydroxy-1-phenylbutan-2-yl)-N3-methyl-N3-((4-methylthiazol-2-yl)methyl)isophthalamide], the pKi at memapsin 2 (20 minutes pre-incubation) is more than 6.52. Also, the pIC50 in experiment [1] (setting [2]) was more than 6.00.

For the compound `COc1cccc(CNC[C@@H](O)[C@H](Cc2ccccc2)NC(=O)c2cc(N)cc(C(=O)N(C)Cc3nc(C)cs3)c2)c1` [Compound 34, 5-amino-N1-((2S,3R)-3-hydroxy-4-(3-methoxybenzylamino)-1-phenylbutan-2-yl)-N3-methyl-N3-((4-methylthiazol-2-yl)methyl)isophthalamide], on memapsin 2 (20 minutes pre-incubation), the pKi is less than 6.30. In experiment [1] (setting [2]), the pIC50 was 5.30 to 6.00.

Regarding `CCN(Cc1nc(C)cs1)C(=O)c1cc(OC)cc(C(=O)N[C@@H](Cc2ccccc2)[C@H](O)CNCc2cccc(OC)c2)c1` [Compound 16, N1-ethyl-N3-((2S,3R)-3-hydroxy-4-(3-methoxybenzylamino)-1-phenylbutan-2-yl)-5-methoxy-N1-((4-methylthiazol-2-yl)methyl)isophthalamide], the pKi on memapsin 2 (20 minutes pre-incubation) was more than 6.52. In addition, in experiment [1] (setting [2]), the pIC50 was more than 6.00.

Turning to `COC1(OC)CCN(c2cc(C(=O)N[C@@H](Cc3ccccc3)[C@H](O)CNCc3cncc(C(C)C)c3)cc(C(=O)N(C)Cc3nc(C)cs3)c2)C1` [Compound 299, 5-(3,3-dimethoxypyrrolidin-1-yl)-N1-((2S,3R)-3-hydroxy-4-((5-isopropylpyridin-3-yl)methylamino)-1-phenylbutan-2-yl)-N3-methyl-N3-((4-methylthiazol-2-yl)methyl)isophthalamide], the pKi at memapsin 2 (fluorogenic substrate FS-2) is more than 6.52. For the same compound, the pIC50 in experiment [1] (setting [2]) is more than 6.00.

Regarding `Cc1csc(CN(C)C(=O)c2cccc(C(=O)N[C@@H](Cc3ccccc3)[C@H](O)CNCc3cc(C#N)cc(C(C)C)c3)c2)n1` [Compound 248, N1-((2S,3R)-4-(3-cyano-5-isopropylbenzylamino)-3-hydroxy-1-phenylbutan-2-yl)-N3-methyl-N3-((4-methylthiazol-2-yl)methyl)isophthalamide], the pKi on memapsin 2 (fluorogenic substrate FS-2) was more than 6.52. Also, the pIC50 in experiment [1] (setting [2]) was more than 6.00.

Take `Cc1csc(CN(C)C(=O)c2cccc(C(=O)N[C@@H](Cc3ccccc3)[C@H](O)CNCc3cccc(Cl)c3)c2)n1` [Compound 104, N1-((2S,3R)-4-(3-chlorobenzylamino)-3-hydroxy-1-phenylbutan-2-yl)-N3-methyl-N3-((4-methylthiazol-2-yl)methyl)isophthalamide]: on memapsin 2 (20 minutes pre-incubation), the pKi was more than 6.52. The pIC50 in experiment [1] (setting [2]) is more than 6.00.

`Cc1csc(CN(C)C(=O)c2cc(C(=O)N[C@@H](Cc3ccccc3)[C@H](O)CNCc3cncc(C(C)C)c3)cc(C(C)O)c2)n1` (stereo partly drawn) [Compound 223, N1-((2S,3R)-3-hydroxy-4-((5-isopropylpyridin-3-yl)methylamino)-1-phenylbutan-2-yl)-5-(1-hydroxyethyl)-N3-methyl-N3-((4-methylthiazol-2-yl)methyl)isophthalamide]: the pKi at memapsin 2 (fluorogenic substrate FS-2) is more than 6.52. Also, the pIC50 in experiment [1] (setting [2]) was more than 6.00.

In the case of `COC(=O)c1cc(CNC[C@@H](O)[C@H](Cc2ccccc2)NC(=O)c2cccc(C(=O)N(C)Cc3nc(C)cs3)c2)cc(OC)c1` [Compound 54, methyl 3-(((2R,3S)-2-hydroxy-3-(3-(methyl((4-methylthiazol-2-yl)methyl)carbamoyl)benzamido)-4-phenylbutylamino)methyl)-5-methoxybenzoate], on memapsin 2 (20 minutes pre-incubation), the pKi is more than 6.52. Moreover, the pIC50 in experiment [1] (setting [2]) was more than 6.00.

With `Cc1csc(CN(C)C(=O)c2cc(C(=O)N[C@@H](Cc3ccccc3)[C@H](O)CNCc3cncc(C(C)(C)F)c3)cc(-c3ccoc3)c2)n1` [Compound 270, N1-((2S,3R)-4-((5-(2-fluoropropan-2-yl)pyridin-3-yl)methylamino)-3-hydroxy-1-phenylbutan-2-yl)-5-(furan-3-yl)-N3-methyl-N3-((4-methylthiazol-2-yl)methyl)isophthalamide], the pKi on memapsin 2 (fluorogenic substrate FS-2) was more than 6.52. In experiment [1] (setting [2]), the pIC50 was more than 6.00.

Take `Cc1csc(CN(C)C(=O)c2cccc(C(=O)N[C@@H](Cc3ccccc3)[C@H](O)CNCc3cccc(NCc4ccccc4)c3)c2)n1` [Compound 164, N1-((2S,3R)-4-(3-(benzylamino)benzylamino)-3-hydroxy-1-phenylbutan-2-yl)-N3-methyl-N3-((4-methylthiazol-2-yl)methyl)isophthalamide]: on memapsin 2 (20 minutes pre-incubation), the pKi is more than 6.52. Besides, in experiment [1] (setting [2]), the pIC50 was more than 6.00.

`Cc1csc(CN(C)C(=O)c2cccc(C(=O)N[C@@H](Cc3ccccc3)[C@H](O)CNCc3cc(N(C)C)cc(N(C)C)c3)c2)n1` [Compound 185, N1-((2S,3R)-4-(3,5-bis(dimethylamino)benzylamino)-3-hydroxy-1-phenylbutan-2-yl)-N3-methyl-N3-((4-methylthiazol-2-yl)methyl)isophthalamide]: at memapsin 2 (20 minutes pre-incubation), the pKi was more than 6.52. Besides, the pIC50 in experiment [1] (setting [2]) was more than 6.00.

For `Cc1csc(CN(C)C(=O)c2ccc(C)c(C(=O)N[C@@H](Cc3ccccc3)[C@H](O)CNCc3cncc(C(C)C)c3)c2)n1` [Compound 249, N3-((2S,3R)-3-hydroxy-4-((5-isopropylpyridin-3-yl)methylamino)-1-phenylbutan-2-yl)-N1,4-dimethyl-N1-((4-methylthiazol-2-yl)methyl)isophthalamide], at memapsin 2 (fluorogenic substrate FS-2), the pKi is less than 6.30. Moreover, in experiment [1] (setting [2]), the negative-log IC50 (pIC50) is less than 5.30.

With `COc1cccc(CNC[C@@H](O)[C@H](Cc2ccccc2)NC(=O)c2cc(C(=O)O)cc(C(=O)N(C)Cc3nc(C)cs3)c2)c1` [Compound 19, 3-((2S,3R)-3-hydroxy-4-(3-methoxybenzylamino)-1-phenylbutan-2-ylcarbamoyl)-5-(methyl((4-methylthiazol-2-yl)methyl)carbamoyl)benzoic acid], the pKi at memapsin 2 (20 minutes pre-incubation) is more than 6.52. Besides, the pIC50 in experiment [1] (setting [2]) is more than 6.00.

For `Cc1csc(CN(C)C(=O)c2cc(C(=O)N[C@@H](Cc3ccccc3)[C@H](O)CNCc3cc(OC(=O)N(C)C)cc(C(C)C)c3)cc(N(C)C)c2)n1` [Compound 209, 3-(((2R,3S)-3-(3-(dimethylamino)-5-(methyl((4-methylthiazol-2-yl)methyl)carbamoyl)benzamido)-2-hydroxy-4-phenylbutylamino)methyl)-5-isopropylphenyl dimethylcarbamate], on memapsin 2 (20 minutes pre-incubation), the pKi is more than 6.52. In experiment [1], the pIC50 was more than 6.00.

`Cc1csc(CN(C)C(=O)c2cc(C(=O)N[C@@H](Cc3ccccc3)[C@H](O)CNCc3cncc(C(C)C)c3)cc(-c3cnn(C)c3)c2)n1` [Compound 258, N1-((2S,3R)-3-hydroxy-4-((5-isopropylpyridin-3-yl)methylamino)-1-phenylbutan-2-yl)-N3-methyl-5-(1-methyl-1H-pyrazol-4-yl)-N3-((4-methylthiazol-2-yl)methyl)isophthalamide]: at memapsin 2 (fluorogenic substrate FS-2), the pKi is more than 6.52. For the same compound, the pIC50 in experiment [1] (setting [2]) was more than 6.00.

As for `Cc1csc(CN(C)C(=O)c2cccc(C(=O)N[C@@H](Cc3ccccc3)[C@H](O)CNCc3cncc(C#N)c3)c2)n1` [Compound 171, N1-((2S,3R)-4-((5-cyanopyridin-3-yl)methylamino)-3-hydroxy-1-phenylbutan-2-yl)-N3-methyl-N3-((4-methylthiazol-2-yl)methyl)isophthalamide], the pKi on memapsin 2 (20 minutes pre-incubation) was 6.30 to 6.52. The pIC50 in experiment [1] (setting [2]) is 5.30 to 6.00.

For `COc1cc(C(=O)N[C@@H](Cc2ccccc2)[C@H](O)CNCc2cccc(C(F)(F)F)c2)cc(C(=O)N(C)Cc2nc(C)cs2)c1` [Compound 31, N1-((2S,3R)-3-hydroxy-1-phenyl-4-(3-(trifluoromethyl)benzylamino)butan-2-yl)-5-methoxy-N3-methyl-N3-((4-methylthiazol-2-yl)methyl)isophthalamide], the pKi at memapsin 2 (20 minutes pre-incubation) is more than 6.52. Moreover, the pIC50 in experiment [1] (setting [2]) is more than 6.00.

Regarding `Cc1coc(CN(C)C(=O)c2cccc(C(=O)N[C@@H](Cc3ccccc3)[C@H](O)CNCc3cncc(C(C)C)c3)c2)n1` [Compound 95, N1-((2S,3R)-3-hydroxy-4-((5-isopropylpyridin-3-yl)methylamino)-1-phenylbutan-2-yl)-N3-methyl-N3-((4-methyloxazol-2-yl)methyl)isophthalamide], on memapsin 2 (20 minutes pre-incubation), the pKi is more than 6.52. For the same compound, the pIC50 in experiment [1] (setting [2]) is more than 6.00.

The values above are taken from patent US20100286145A1, “ISOPHTHALAMIDE DERIVATIVES INHIBITING BETA-SECRETASE ACTIVITY” (CoMentis, Inc., priority 2007, published 2010).
